Assay results reported in PubChem BioAssay AID1918934 (Molecular Pharmacology Branch, DTP, NCI, 2023).
Where “and” joins values, the source holds several entries; their conditions need not be identical. Equal entries are not always repeated.

System: 292921-168-R-J2-PDC complex spheroid viability
Assay: Anticancer human tumor 292921-168-R-J2-PDC patient-derived pancreatic carcinoma cell line growth inhibition
Conditions: for viability, T/C: stronger effect = lower value; active means viability on the fitted dose curve at most 10% of control; inactive means the rest
Text: Multicellular complex tumor spheroid response to LSD1 Inhibitor Iadademstat in combination with a variety of drugs and investigational agents in selected tumor cell lines
The current study was undertaken to assess response to LSD1 inhibitors in combination with standard-of-care drugs and investigational agents in solid tumor complex spheroid models as well as in the K-562 leukemia. Complex spheroids include a stromal component modeled by human endothelial cells (HUVEC) and fibroblasts modeled by human mesenchymal stem cells (MSCs). The concentration ranges selected for each drug and investigational agent were based upon clinically achievable concentrations if the clinical Cmax of the agent was known.
Compounds. The drugs and investigational agents used in this study are listed on Table 1. All of the agents used, including staurosporine (NSC755774) and gemcitabine (NSC613327), were obtained from the Developmental Therapeutics Program, NCI. FDA-approved anticancer drugs are available from the NCI at http://dtp.nci.nih.gov/branches/dscb/oncology_drugset_explanation.html. Drugs and investigational agents were >95% pure by proton nuclear magnetic resonance (NMR) and liquid chromatography/mass spectrometry (LC/MS). Stock solutions were prepared at 400x in DMSO, stored at -70 degrees C, and diluted in fresh medium prior to their use. The final concentration of DMSO in cell culture wells never exceeded 0.25% (v/v). The FDA-approved anticancer drug set is available from the Developmental Therapeutics Program at https://dtp.cancer.gov/organization/dscb/obtaining/available_plates.htm. All drugs and investigational agents were tested over a range starting from a high concentration at or near the clinical Cmax and decreasing in half-log increments. If the clinical Cmax for an agent had not been determined, the highest concentration tested was 10 microM.
Cell Lines. The patient-derived cancer cell (PDC) lines: 292921-168-R-J2-PDC, K24384-001-R-PDC, and 521955-158-R2-J5-PDC pancreatic carcinomas, 556581-035-R-J1 ovarian carcinoma, 324938-238-R-J1-PDC, 855422-203-R-J1-PDC and 883617-216-R-J1-PDC urothelial bladder carcinomas, 743489-274-T-PDC renal cell carcinoma, 138582-R-J1 Merkel cell tumor, K60290-347-R-J1 and K57222-313-R-J1-PDC glioblastomas, 653999-131-R-J2-PDC, LG0703-F948-PDC, and 349418-098-R-PDC non-small cell lung carcinomas, 885512-296-R-J2-PDC, 171881-019-R-J1-PDC breast carcinomas and 186277-243-T-J2-PDC and 233499-124-R-J2-PDC colon carcinomas were obtained from the NCI Patient-Derived Models Repository (PDMR, https://pdmr.cancer.gov). The established cell lines NCI/ADR-RES (RRID:CVCL_14520 and OVCAR-5 (RRID:CVCL_1628) ovarian carcinomas, 786-O (RRID:CVCL_1051) and A498 (RRID:CVCL_A498) renal cell carcinoma, NCI-H211 (ATCC, cat. CRL-5824; RRID:CVCL_1529), NCI-H196 (ATCC, cat. CRL-5823, RRID:CVCL_1509), SW 1271 (ATCC, cat. CRL-2177, RRID:CVCL_1716) and NCI-H1876 (ATCC, cat. CRL-5902, RRID:CVCL_1503) small cell lung carcinomas, MDA-MB-231 (RRID:CVCL_0062) and MDA-MB-468 (RRID:CVCL_0419)breast carcinomas (10-12). Pooled donor human umbilical vein endothelial cells (HUVEC, Lonza, cat. CC-2519) and human mesenchymal stem cells (hMSC, Lonza, cat. PT-2501) were purchased from Lonza (Walkersville, MD).
Cell Culture. All cells were maintained in an incubator at 37 degrees C and 5% CO2 with 95% humidity. The PDC lines were cultured according to standard operating procedures established by the NCI PDMR (https://pdmr.cancer.gov). Briefly all PDCs were thawed and cultured in Matrigel-coated flasks prepared with a working solution of 1X Ham's F-12 nutrient mix, without supplementation (Invitrogen, Waltham, MA, cat. 11765054), 100 U/mL penicillin-streptomycin (Invitrogen, cat. 15140122), and 2.5% Matrigel (Corning Inc., Corning, NY, cat. 354248) for the first three passages. […]
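Further: seven day compound exposure before luminescent viability read.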

CC1COCCN1c1cc(C2(S(C)(=N)=O)CC2)nc(-c2ccnc3[nH]ccc23)n1 (centres undefined)
inactive: viability, T/C (compound 0.0316 µM) 104% and 96.3% | viability, T/C (compound 0.1 µM) 102% and 99.3% | viability, T/C (compound 0.316 µM) 73.6% and 77.7% | viability, T/C (compound 1 µM) 31.6% and 35.1% | viability, T/C (compound 3.16 µM) 13.4% and 16.8% | viability, T/C (compound 10 µM) 12.6% and 11.3%
602 nM and 673 nM: IC50 (curve of compound)

O=C(c1cc(Cc2n[nH]c(=O)c3ccccc23)ccc1F)N1CCN(C(=O)C2CC2)CC1 + NC1CC1c1ccc(-c2cccc(O)c2)cc1
inactive: viability, T/C (second compound 0.1 µM, first compound 0.0316 µM) 89.5% | viability, T/C (second compound 0.1 µM, first compound 0.1 µM) 104% | viability, T/C (second compound 0.1 µM, first compound 0.316 µM) 78.8% | viability, T/C (second compound 0.1 µM, first compound 1 µM) 74.3% | viability, T/C (second compound 0.1 µM, first compound 3.16 µM) 58.1% | viability, T/C (second compound 0.1 µM, first compound 10 µM) 33.1% | viability, T/C (second compound 0.316 µM, first compound 0.0316 µM) 75% | viability, T/C (second compound 0.316 µM, first compound 0.1 µM) 67.8% | viability, T/C (second compound 0.316 µM, first compound 0.316 µM) 67% | viability, T/C (second compound 0.316 µM, first compound 1 µM) 68.9% | viability, T/C (second compound 0.316 µM, first compound 3.16 µM) 46.6% | viability, T/C (second compound 0.316 µM, first compound 10 µM) 31.2% | viability, T/C (second compound 1 µM, first compound 0.0316 µM) 60.1% | viability, T/C (second compound 1 µM, first compound 0.1 µM) 69.2% | viability, T/C (second compound 1 µM, first compound 0.316 µM) 64.5% | viability, T/C (second compound 1 µM, first compound 1 µM) 64.5% | viability, T/C (second compound 1 µM, first compound 3.16 µM) 43.1% | viability, T/C (second compound 1 µM, first compound 10 µM) 32.3% | viability, T/C (second compound 3.16 µM, first compound 0.0316 µM) 64.5% | viability, T/C (second compound 3.16 µM, first compound 0.1 µM) 60.1% | viability, T/C (second compound 3.16 µM, first compound 0.316 µM) 63% | viability, T/C (second compound 3.16 µM, first compound 1 µM) 54.1% | viability, T/C (second compound 3.16 µM, first compound 3.16 µM) 39% | viability, T/C (second compound 3.16 µM, first compound 10 µM) 32.8% | viability, T/C (second compound 10 µM, first compound 0.0316 µM) 61.3% | viability, T/C (second compound 10 µM, first compound 0.1 µM) 51.2% | viability, T/C (second compound 10 µM, first compound 0.316 µM) 53.6% | viability, T/C (second compound 10 µM, first compound 1 µM) 42.2% | viability, T/C (second compound 10 µM, first compound 3.16 µM) 34% | viability, T/C (second compound 10 µM, first compound 10 µM) 29.6%
1390 nM: IC50 (curve of first compound, second compound 3.16 µM)
278 nM: IC50 (curve of first compound, second compound 10 µM)
4420 nM: IC50 (curve of first compound, second compound 0.1 µM)
2650 nM: IC50 (curve of first compound, second compound 0.316 µM)
2180 nM: IC50 (curve of first compound, second compound 1 µM)

Nc1ncn(C2CC(O)C(CO)S2)c(=O)n1 (centres undefined)
72.5 nM and 83.7 nM: IC50 (curve of compound)
inactive: viability, T/C (compound 0.000949 µM) 96.5% and 102% | viability, T/C (compound 0.003 µM) 104% and 92.4% | viability, T/C (compound 0.00949 µM) 84% and 88.4% | viability, T/C (compound 0.03 µM) 72.4% and 80.4% | viability, T/C (compound 0.0949 µM) 43.5% and 45.3% | viability, T/C (compound 0.3 µM) 13.5% and 13.6%
